Experimental data published in patent publication US8324197B2, “Transplatinum complexes with N2O2 donor sets as cytotoxic and antitumor agents” (Virginia Commonwealth University, priority 2005, dated 2012).
Like-named read-outs stand apart in the source and are kept apart here. Marks after values point to notes of the source that are not given here. One block for each compound: values may come before it.

Columns and labels:
[1] = Solubility of TPA carboxylates, Example 6; format: physicochemical; conditions: aqueous; table title ambient temperature, text 37° C.
[2] = Initial hydrolysis of TPA carboxylates monitored by HPLC at 37° C.; format: physicochemical; conditions: H2O; for k1, initial hydrolysis rate constant: I=0.02 M; for hydrolysis occurring after 9 h: HPLC
Method: The slowest initial hydrolysis rate was found for complex 2c t-[Pt(OAc)2(NH3)(2-pic)], with just 4% hydrolysis occurring after 9 h. The hydrolysis of the formate complex 4f was the fastest, with 24% hydrolysis occurring after 9 h. The hydrolysis rates of the acetate complexes followed the pattern 2c<4c<3c. […] Thus, hydrolysis of the acetate complexes is slowed by an approximate order of magnitude compared to their direct chloro analogs but there is little difference in the present case between 3- and 4-picoline. Steric hindrance therefore predominates over the electronic effects of the methyl group. In the case of the chloride complexes, the 3-pic directs less electron density to the platinum rendering it less nucleophilic relative to the 2-pic and 4-pic. 14 We observe the same trend in the acetate complexes, but the effect is lessened due to the carboxylate group being a weak ligand, with a low trans influence and trans effect.^11

[3] = corresponding diaqua complex; other compounds of the series 2-4c given for comparison (refs 11, 14); cited from earlier work
[4] = Aqueous solubility of TPA-acetate complexes (sequential addition of water); format: physicochemical; conditions: ambient temperature
Method: (§1) The aqueous solubility of the acetate compounds and the acid dissociation constants of the corresponding aqua species are given in Table 1. Use of acetates enhances aqueous solubility which is dependent on the exact nature of the donor ligands. The pKa values were determined by potentiometric titration of solutions of trans-[Pt(H2O)2(L)(L′)]^2+ (formed by the dissolution of the isolated trans-[Pt(NO3)2(L)(L′)]) with NaOH. […] (X=2,3,4-Me).^30

[5] = pKa of corresponding TPA diaqua complexes by potentiometric titration with NaOH; format: physicochemical; conditions: corresponding diaqua complex trans-[Pt(OH2)2(L)(L′)], ambient temperature
Method: as §1

[6] = test system: ovarian cancer cell line panel; assay: Cytotoxicity in ovarian cancer cell line panel (cell line not specified); format: cell-based, human
Method: (§2) It is noteworthy that the acetate compounds maintain cytotoxicity with low resistance factors in all cases. The trans-[Pt(OAc)2(NH3)2] compound is also very water-soluble but the cytotoxicity of >100 μM confirms the requirement for a planar amine to enhance cytotoxicity in the trans geometry.

[7] = cited from earlier work; for k1, first hydrolysis step to the monoaqua complex: analogous dichloride complexes, I=0.1 M
[8] = cited from earlier work; for k1, rate constant for the first aquation step: literature values of other platinum compounds
CH1 = assay: Growth inhibition in human ovarian cancer cell line panel, 96 h exposure; format: cell-based; conditions: for CH1 RF: RF = (IC50 Resistant)/(IC50 Sensitive)
Method: as §2

41M = assay: as above; format: cell-based; conditions: for 41M RF: RF = (IC50 Resistant)/(IC50 Sensitive)
Method: as §2

[9] = literature; cited from earlier work
A2780 = assay: Growth inhibition in human ovarian cancer cell line panel, 96 h exposure; format: cell-based; conditions: for A2780 RF: RF = (IC50 Resistant)/(IC50 Sensitive)
Method: as §2

Compound: CC(=O)[O][Pt][O]C(C)=O.N.N [trans-[Pt(OAc)2(NH3)2]]
Solubility [4]: 21 mg/mL
pKa1 [5]: 4.0^b
pKa2 [5]: 7.08
IC50 [6]: > 100 µM

Compound: Cc1cccnc1.N.[Cl][Pt][Cl] [3-pic]
k1, first hydrolysis step to the monoaqua complex [7]: 0.000127 s⁻¹

Compound: Cc1ccncc1.N.[Cl][Pt][Cl] [4-pic]
k1, first hydrolysis step to the monoaqua complex [7]: 5.2e-05 s⁻¹

Compound: Cc1ccccn1.N.[Cl][Pt][Cl] [2-pic]
k1, first hydrolysis step to the monoaqua complex [7]: 2.6e-05 s⁻¹

Compound: N.N.[Cl][Pt][Cl] [Cisplatin, cis-[PtCl2(NH3)2], reference compound]
hydrolysis rate ([7]; at 20° C., literature): 5.18e-05 s⁻¹
k1, rate constant for the first aquation step [8]: 5.18e-05 s⁻¹
IC50 (CH1): 0.1 µM
CH1 RF (CH1): (6.7)
IC50 (41M): 1.4 µM
41M RF (41M): (6.1)

Compound: NCCNCCN.[Cl-].[Pt+2] [[PtCl(dien)]+]
k1, rate constant for the first aquation step [8]: (6.50 ± 0.13) × 10^−5 s^−1

Compound: N.N.[Cl][Pt+2][Cl] [Transplatin, trans-[PtCl2(NH3)2]]
time to complete reaction with N-AcMet [9]: ≤ 5 h
k1, rate constant for the first aquation step [8]: 0.00019 s⁻¹

Compound: CCC[NH][Pt]([NH]CCC)([O]C(=O)CCl)[O]C(=O)CCl [cis-[Pt(PrNH2)2(ClCH2CO2)2]]
rate constant of substitution by water of the first carboxylate ligand ([8]; cis carboxylate complex, literature): 4.38e-05 s⁻¹

Compound: trans-[diacetato(ammine)(quinoline)platinum(II)] [trans-[Pt(OAc)2(NH3)(quin)]]
IC50 (CH1): 17 µM
CH1 RF (CH1): (0.48)
IC50 (41M): 22 µM
41M RF (41M): (1.00)
IC50 (A2780): 13 µM
A2780 RF (A2780): (1.46)

Compound: trans-[diacetatobis(pyridine)platinum(II)] [trans-[Pt(OAc)2(py)2]]
IC50 (CH1): 19 µM
CH1 RF (CH1): (0.22)
IC50 (41M): 14 µM
41M RF (41M): (0.32)
IC50 (A2780): 12.8 µM
A2780 RF (A2780): (0.90)

Compound: [NH2][Pt]1([NH2])[O]C(=O)C2(CCC2)C(=O)[O]1 [Carboplatin, cis-[Pt(CBDCA)(NH3)2]]
hydrolysis rate constant ([8]; aqueous solution): < 5e-09 s⁻¹
k1, rate constant for the first aquation step [8]: <10^−8 s^−1
hydrolysis rate ([8]; phosphate buffer at 310 K): 7.2e-07 s⁻¹

Compound: CC(=O)[O-].CC(=O)[O-].Cc1ccccn1.N.[Pt+2] [2c, trans-[Pt(OAc)2(NH3)(2-pic)]]
hydrolysis occurring after 9 h [2]: 4%
k1, initial hydrolysis rate constant [2]: 1.07e-06 s⁻¹
Solubility (mg/mL), TPA Acetates [1]: 10 mg/mL
pKa1 [3]: 4.03
pKa2 [3]: 7.1

Now from value to compound, other results behind:

Solubility (mg/mL), TPA Substituted Carboxylates [1]: Insoluble
Compound: Cc1ccncc1.N.O=C([O-])C(F)(F)F.O=C([O-])C(F)(F)F.[Pt+2] [4g, trans-[Pt(Tfa)2(NH3)(4-pic)]]

k1, initial hydrolysis rate constant [2]: 5.61e-06 s⁻¹
Compound: Cc1ccncc1.N.O=C(CO)[O][Pt][O]C(=O)CO [4d, trans-[Pt(OAcOH)2(NH3)(4-pic)]]

k1, initial hydrolysis rate constant [2]: 3.26e-06 s⁻¹
Solubility (mg/mL), TPA Acetates [1]: 13.2 mg/mL
Compound: CC(=O)[O][Pt][O]C(C)=O.Cc1ccncc1.N [4c]
pKa1 [3]: 3.94
pKa2 [3]: 6.88

hydrolysis occurring after 9 h [2]: 24%
Solubility (mg/mL), TPA Substituted Carboxylates [1]: 0.29 mg/mL
Compound: trans-[Pt(OAcCl)2(NH3)(4-pic)] [4f]

Solubility (mg/mL), TPA Substituted Carboxylates [1]: Insoluble
Compound: Cc1ccncc1.N.O=C([O-])c1ccccc1.O=C([O-])c1ccccc1.[Pt+2] [4h, trans-[Pt(OBz)2(NH3)(4-pic)]]

k1, initial hydrolysis rate constant [2]: 3.52e-06 s⁻¹
Solubility (mg/mL), TPA Acetates [1]: 11.4 mg/mL
Compound: CC(=O)[O][Pt][O]C(C)=O.Cc1cccnc1.N [3c]
pKa1 [3]: 3.97
pKa2 [3]: 6.78
